# Assay results taken from the kinase profiling compilation of Christmann-Franck et al. (2016).
# How the values were obtained:
# Assay in all cases: radiometric filter-binding kinase assay, Kinase HotSpot
# Settings in all cases: compound 0.5 µM; ATP 10 µM
# MYLK2 (human) = MYLK2 (human) (UniProt Q9H1R3)
# TEC (human) = TEC (human) (UniProt P42680)
# PAK4 (human) = PAK4 (human) (UniProt O96013)
# MARK3 (human) = MARK3 (human) (UniProt P27448)
# STK10 (human) = STK10 (human) (UniProt O94804)
# NEK2 (human) = NEK2 (human) (UniProt P51955)
# GSK3A (human) = GSK3A (human) (UniProt P49840)
# GSK3A (human), sequence (P49840 whole entry, looked up): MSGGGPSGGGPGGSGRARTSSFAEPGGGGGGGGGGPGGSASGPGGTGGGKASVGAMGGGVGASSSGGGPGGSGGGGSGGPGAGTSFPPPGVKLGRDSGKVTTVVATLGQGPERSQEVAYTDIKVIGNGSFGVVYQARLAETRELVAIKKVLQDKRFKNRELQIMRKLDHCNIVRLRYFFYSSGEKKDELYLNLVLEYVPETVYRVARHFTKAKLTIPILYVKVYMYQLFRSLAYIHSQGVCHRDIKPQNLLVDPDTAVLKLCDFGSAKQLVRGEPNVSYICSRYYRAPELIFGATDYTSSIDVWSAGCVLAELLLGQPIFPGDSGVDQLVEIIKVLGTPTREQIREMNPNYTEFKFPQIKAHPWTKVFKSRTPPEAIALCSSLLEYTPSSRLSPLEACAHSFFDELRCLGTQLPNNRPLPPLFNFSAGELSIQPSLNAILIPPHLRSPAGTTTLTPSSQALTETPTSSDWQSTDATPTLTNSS
# CDK6 CCND3 (human) = CDK6 CCND3 (human) (UniProt P30281+Q00534)
# ACVR1 (human) = ACVR1 (human) (UniProt Q04771)
# EPHA3 (human) = EPHA3 (human) (UniProt P29320)
# SGK2 (human) = SGK2 (human) (UniProt Q9HBY8)
# PRKD2 (human) = PRKD2 (human) (UniProt Q9BZL6)
# TGFBR2 (human) = TGFBR2 (human) (UniProt P37173)
# NEK1 (human) = NEK1 (human) (UniProt Q96PY6)
# CSNK1G2 (human) = CSNK1G2 (human) (UniProt P78368)
# HIPK4 (human) = HIPK4 (human) (UniProt Q8NE63)
# HIPK4 (human), sequence (Q8NE63 whole entry, looked up): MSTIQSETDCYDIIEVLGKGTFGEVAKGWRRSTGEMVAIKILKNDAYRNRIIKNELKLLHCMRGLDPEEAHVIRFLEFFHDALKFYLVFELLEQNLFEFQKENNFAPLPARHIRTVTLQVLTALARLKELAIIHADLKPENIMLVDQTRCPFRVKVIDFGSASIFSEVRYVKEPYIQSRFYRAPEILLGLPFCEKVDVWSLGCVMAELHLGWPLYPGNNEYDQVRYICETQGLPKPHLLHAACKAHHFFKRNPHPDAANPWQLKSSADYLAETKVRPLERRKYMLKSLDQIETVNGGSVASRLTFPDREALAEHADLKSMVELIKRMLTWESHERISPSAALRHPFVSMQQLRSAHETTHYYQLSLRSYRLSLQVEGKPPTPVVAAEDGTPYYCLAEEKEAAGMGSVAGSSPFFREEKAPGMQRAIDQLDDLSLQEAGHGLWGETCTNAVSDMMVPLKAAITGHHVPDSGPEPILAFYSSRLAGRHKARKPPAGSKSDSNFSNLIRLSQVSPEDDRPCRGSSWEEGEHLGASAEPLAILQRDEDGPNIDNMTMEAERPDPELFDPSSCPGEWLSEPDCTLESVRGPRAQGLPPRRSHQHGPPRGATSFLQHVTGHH
# EGFR (human) = EGFR (human) (UniProt P00533)
# EGFR (human), sequence (P00533 whole entry, looked up): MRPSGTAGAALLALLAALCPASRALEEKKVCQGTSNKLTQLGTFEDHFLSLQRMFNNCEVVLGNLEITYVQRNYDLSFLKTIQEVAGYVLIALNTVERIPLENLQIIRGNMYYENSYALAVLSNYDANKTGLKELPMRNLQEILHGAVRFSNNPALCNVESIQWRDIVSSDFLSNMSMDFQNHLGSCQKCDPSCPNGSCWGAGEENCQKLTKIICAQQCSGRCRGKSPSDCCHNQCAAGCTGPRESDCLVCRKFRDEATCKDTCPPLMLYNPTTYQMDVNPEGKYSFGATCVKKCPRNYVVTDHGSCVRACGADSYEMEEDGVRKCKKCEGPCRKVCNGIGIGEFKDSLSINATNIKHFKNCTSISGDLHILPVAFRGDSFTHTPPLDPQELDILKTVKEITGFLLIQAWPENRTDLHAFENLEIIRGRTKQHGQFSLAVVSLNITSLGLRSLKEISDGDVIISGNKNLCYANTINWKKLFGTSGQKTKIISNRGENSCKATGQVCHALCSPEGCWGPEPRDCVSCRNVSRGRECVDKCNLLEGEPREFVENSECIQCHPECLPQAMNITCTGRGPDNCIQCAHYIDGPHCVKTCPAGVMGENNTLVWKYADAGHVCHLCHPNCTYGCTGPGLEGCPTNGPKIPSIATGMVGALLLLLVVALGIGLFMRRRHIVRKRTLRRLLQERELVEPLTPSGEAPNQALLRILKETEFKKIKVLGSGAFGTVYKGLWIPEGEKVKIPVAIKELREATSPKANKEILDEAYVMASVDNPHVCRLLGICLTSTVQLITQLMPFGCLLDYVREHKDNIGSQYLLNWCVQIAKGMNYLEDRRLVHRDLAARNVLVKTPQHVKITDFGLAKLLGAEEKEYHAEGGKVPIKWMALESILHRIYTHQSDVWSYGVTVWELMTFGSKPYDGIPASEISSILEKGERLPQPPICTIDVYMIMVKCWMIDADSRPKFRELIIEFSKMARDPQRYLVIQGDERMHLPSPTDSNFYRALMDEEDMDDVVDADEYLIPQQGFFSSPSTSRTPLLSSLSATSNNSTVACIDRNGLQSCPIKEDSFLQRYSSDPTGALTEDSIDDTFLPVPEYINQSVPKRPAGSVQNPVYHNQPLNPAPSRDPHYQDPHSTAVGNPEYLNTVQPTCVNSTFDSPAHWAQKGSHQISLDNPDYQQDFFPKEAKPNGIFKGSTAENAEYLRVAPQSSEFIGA
# TLK2 (human) = TLK2 (human) (UniProt Q86UE8)
# ITK (human) = ITK (human) (UniProt Q08881)
# DAPK2 (human) = DAPK2 (human) (UniProt Q9UIK4)
# MYO3B (human) = MYO3B (human) (UniProt Q8WXR4)
# PRKG2 (human) = PRKG2 (human) (UniProt Q13237)
# STK38 (human) = STK38 (human) (UniProt Q15208)
# EPHA5 (human) = EPHA5 (human) (UniProt P54756)
# TAOK1 (human) = TAOK1 (human) (UniProt Q7L7X3)
# BRSK1 (human) = BRSK1 (human) (UniProt Q8TDC3)
# ERBB4 (human) = ERBB4 (human) (UniProt Q15303)
# ERBB4 (human), sequence (Q15303 whole entry, looked up): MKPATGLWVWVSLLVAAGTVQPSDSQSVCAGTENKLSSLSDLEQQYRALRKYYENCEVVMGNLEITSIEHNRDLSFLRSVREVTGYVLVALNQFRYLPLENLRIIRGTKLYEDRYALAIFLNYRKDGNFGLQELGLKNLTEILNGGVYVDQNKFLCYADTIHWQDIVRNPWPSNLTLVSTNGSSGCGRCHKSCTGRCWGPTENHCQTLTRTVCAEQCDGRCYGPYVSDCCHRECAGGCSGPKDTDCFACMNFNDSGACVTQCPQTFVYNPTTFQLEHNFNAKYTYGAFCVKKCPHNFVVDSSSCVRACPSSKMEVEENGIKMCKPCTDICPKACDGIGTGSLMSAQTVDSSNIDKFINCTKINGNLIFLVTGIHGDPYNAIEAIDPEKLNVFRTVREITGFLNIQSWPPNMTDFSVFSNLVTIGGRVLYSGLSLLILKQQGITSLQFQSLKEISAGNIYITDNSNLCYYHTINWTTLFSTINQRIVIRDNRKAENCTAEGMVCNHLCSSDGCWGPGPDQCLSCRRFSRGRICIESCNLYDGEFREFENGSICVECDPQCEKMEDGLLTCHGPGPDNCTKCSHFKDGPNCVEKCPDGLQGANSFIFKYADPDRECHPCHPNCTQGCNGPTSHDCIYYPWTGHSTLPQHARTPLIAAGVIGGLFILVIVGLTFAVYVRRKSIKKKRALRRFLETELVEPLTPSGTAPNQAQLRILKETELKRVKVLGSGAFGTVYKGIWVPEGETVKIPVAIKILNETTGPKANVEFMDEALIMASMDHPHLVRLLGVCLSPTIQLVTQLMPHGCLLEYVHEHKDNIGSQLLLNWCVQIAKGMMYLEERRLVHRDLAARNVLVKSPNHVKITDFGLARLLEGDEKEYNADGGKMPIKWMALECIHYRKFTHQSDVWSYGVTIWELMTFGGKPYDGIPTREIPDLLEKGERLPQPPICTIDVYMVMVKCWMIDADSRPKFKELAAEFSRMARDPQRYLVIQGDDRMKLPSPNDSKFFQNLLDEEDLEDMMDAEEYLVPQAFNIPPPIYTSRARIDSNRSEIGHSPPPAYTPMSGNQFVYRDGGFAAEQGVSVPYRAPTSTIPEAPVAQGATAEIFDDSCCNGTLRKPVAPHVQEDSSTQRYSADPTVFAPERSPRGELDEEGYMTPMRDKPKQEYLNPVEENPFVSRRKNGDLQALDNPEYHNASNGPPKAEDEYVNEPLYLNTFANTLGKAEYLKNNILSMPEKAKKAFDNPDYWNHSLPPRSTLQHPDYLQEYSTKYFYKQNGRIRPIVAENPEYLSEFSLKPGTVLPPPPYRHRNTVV
# CDK3 CCNE1 (human) = CDK3 CCNE1 (human) (UniProt Q00526+P24864)
# TAOK3 (human) = TAOK3 (human) (UniProt Q9H2K8)
# DCLK2 (human) = DCLK2 (human) (UniProt Q8N568)
# CAMK2D (human) = CAMK2D (human) (UniProt Q13557)
# NLK (human) = NLK (human) (UniProt Q9UBE8)
# PASK (human) = PASK (human) (UniProt Q96RG2)
# PBK (human) = PBK (human) (UniProt Q96KB5)
# MAP4K4 (human) = MAP4K4 (human) (UniProt O95819)
# SRPK1 (human) = SRPK1 (human) (UniProt Q96SB4)
# CAMK2G (human) = CAMK2G (human) (UniProt Q13555)
# KDR (human) = KDR (human) (UniProt P35968)
# KDR (human), sequence (P35968 whole entry, looked up): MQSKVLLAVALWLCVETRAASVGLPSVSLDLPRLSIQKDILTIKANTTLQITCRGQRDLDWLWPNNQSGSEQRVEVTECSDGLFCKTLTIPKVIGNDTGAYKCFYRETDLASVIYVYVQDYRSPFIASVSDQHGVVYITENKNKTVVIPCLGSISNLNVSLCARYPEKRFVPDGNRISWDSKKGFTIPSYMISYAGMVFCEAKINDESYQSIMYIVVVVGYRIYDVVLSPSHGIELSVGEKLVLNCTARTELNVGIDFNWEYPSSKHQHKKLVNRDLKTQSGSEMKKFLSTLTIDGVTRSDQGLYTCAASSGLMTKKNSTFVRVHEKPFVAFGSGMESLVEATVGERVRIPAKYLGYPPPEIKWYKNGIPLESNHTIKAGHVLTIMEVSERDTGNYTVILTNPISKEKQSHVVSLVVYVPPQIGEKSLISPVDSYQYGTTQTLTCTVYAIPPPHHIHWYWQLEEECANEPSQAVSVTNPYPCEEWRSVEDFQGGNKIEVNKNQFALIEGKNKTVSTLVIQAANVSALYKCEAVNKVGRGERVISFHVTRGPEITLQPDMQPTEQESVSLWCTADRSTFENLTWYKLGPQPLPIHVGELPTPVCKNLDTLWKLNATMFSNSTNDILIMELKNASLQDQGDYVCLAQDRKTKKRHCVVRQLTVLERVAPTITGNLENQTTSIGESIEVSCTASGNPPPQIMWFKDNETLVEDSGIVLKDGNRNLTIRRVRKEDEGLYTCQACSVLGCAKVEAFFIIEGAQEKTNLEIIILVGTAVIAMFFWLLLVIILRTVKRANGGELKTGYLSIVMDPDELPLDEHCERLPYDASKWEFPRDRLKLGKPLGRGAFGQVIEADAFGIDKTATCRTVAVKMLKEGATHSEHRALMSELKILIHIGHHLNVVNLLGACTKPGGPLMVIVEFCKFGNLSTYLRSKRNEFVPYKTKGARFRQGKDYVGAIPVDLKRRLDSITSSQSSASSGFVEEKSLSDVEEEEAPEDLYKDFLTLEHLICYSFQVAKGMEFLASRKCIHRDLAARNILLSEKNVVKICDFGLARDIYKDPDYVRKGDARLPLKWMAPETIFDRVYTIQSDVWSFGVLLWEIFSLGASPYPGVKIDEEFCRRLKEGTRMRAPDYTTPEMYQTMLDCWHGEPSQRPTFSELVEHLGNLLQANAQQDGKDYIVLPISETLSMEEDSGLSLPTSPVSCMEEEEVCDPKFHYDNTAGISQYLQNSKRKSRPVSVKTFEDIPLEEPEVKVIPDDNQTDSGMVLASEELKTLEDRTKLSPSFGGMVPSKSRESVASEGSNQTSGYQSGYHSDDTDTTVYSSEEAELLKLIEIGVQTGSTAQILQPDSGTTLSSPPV
# RPS6KA1 KD1 KD2 (human) = RPS6KA1 KD1 KD2 (human) (UniProt Q15418)
# MAPK12 (human) = MAPK12 (human) (UniProt P53778)
# ABL2 (human) = ABL2 (human) (UniProt P42684)
# MAP3K11 (human) = MAP3K11 (human) (UniProt Q16584)
compound,measurement,setting,value
O=C1c2ccccc2-c2nc3nnnn3nc21,residual activity,MYLK2 (human),88.1%
same,residual activity,TEC (human),2.44%
same,residual activity,PAK4 (human),91.4%
same,residual activity,MARK3 (human),78.1%
same,residual activity,STK10 (human),84.3%
same,residual activity,NEK2 (human),77.7%
same,residual activity,GSK3A (human),88.7%
same,residual activity,CDK6 CCND3 (human),9.93%
same,residual activity,ACVR1 (human),93.1%
same,residual activity,EPHA3 (human),81.6%
same,residual activity,SGK2 (human),75.1%
same,residual activity,PRKD2 (human),91.7%
same,residual activity,TGFBR2 (human),93.4%
same,residual activity,NEK1 (human),46.3%
same,residual activity,CSNK1G2 (human),82.2%
same,residual activity,HIPK4 (human),97.9%
same,residual activity,EGFR (human),37%
same,residual activity,TLK2 (human),100%
same,residual activity,ITK (human),71.5%
same,residual activity,DAPK2 (human),83.4%
same,residual activity,MYO3B (human),88.4%
same,residual activity,PRKG2 (human),140%
same,residual activity,STK38 (human),46.6%
same,residual activity,EPHA5 (human),81.5%
same,residual activity,TAOK1 (human),90.2%
same,residual activity,BRSK1 (human),84.8%
same,residual activity,ERBB4 (human),50.2%
same,residual activity,CDK3 CCNE1 (human),73.4%
same,residual activity,TAOK3 (human),90.8%
same,residual activity,DCLK2 (human),86.5%
same,residual activity,CAMK2D (human),93%
same,residual activity,NLK (human),98.2%
same,residual activity,PASK (human),73.4%
same,residual activity,PBK (human),64.5%
same,residual activity,MAP4K4 (human),89%
same,residual activity,SRPK1 (human),109%
same,residual activity,CAMK2G (human),91.1%
same,residual activity,KDR (human),1.95%
same,residual activity,RPS6KA1 KD1 KD2 (human),53.1%
same,residual activity,MAPK12 (human),92.5%
same,residual activity,ABL2 (human),89.7%
same,residual activity,MAP3K11 (human),69%
Cc1cccc(-c2nc(C(C)(C)C)[nH]c2-c2ccc3c(c2)OCO3)n1,residual activity,MYLK2 (human),99.2%
same,residual activity,TEC (human),123%
same,residual activity,PAK4 (human),77.5%
same,residual activity,MARK3 (human),73.9%
same,residual activity,STK10 (human),94.5%
same,residual activity,NEK2 (human),107%
same,residual activity,GSK3A (human),93%
same,residual activity,CDK6 CCND3 (human),98%
same,residual activity,ACVR1 (human),96.4%
same,residual activity,EPHA3 (human),101%
same,residual activity,SGK2 (human),100%
same,residual activity,PRKD2 (human),93.6%
same,residual activity,TGFBR2 (human),105%
same,residual activity,NEK1 (human),78.9%
same,residual activity,CSNK1G2 (human),104%
same,residual activity,HIPK4 (human),107%
same,residual activity,EGFR (human),96.4%
same,residual activity,TLK2 (human),103%
same,residual activity,ITK (human),95.8%
same,residual activity,DAPK2 (human),102%
same,residual activity,MYO3B (human),79.2%
same,residual activity,PRKG2 (human),95.9%
same,residual activity,STK38 (human),91.7%
same,residual activity,EPHA5 (human),95.6%
same,residual activity,TAOK1 (human),97.6%
same,residual activity,BRSK1 (human),101%
same,residual activity,ERBB4 (human),83.1%
same,residual activity,CDK3 CCNE1 (human),97.6%
same,residual activity,TAOK3 (human),102%
same,residual activity,DCLK2 (human),101%
same,residual activity,CAMK2D (human),100%
same,residual activity,NLK (human),87.9%
same,residual activity,PASK (human),78.9%
same,residual activity,PBK (human),103%
same,residual activity,MAP4K4 (human),86.9%
same,residual activity,SRPK1 (human),96.5%
same,residual activity,CAMK2G (human),85.5%
same,residual activity,KDR (human),94.7%
same,residual activity,RPS6KA1 KD1 KD2 (human),96.4%
same,residual activity,MAPK12 (human),95.7%
same,residual activity,ABL2 (human),95.7%
same,residual activity,MAP3K11 (human),96.2%
O=C1C(Cl)=C(N2C(=O)CCC2=O)C(=O)c2ccccc21,residual activity,MYLK2 (human),98.1%
same,residual activity,TEC (human),101%
same,residual activity,PAK4 (human),114%
same,residual activity,MARK3 (human),87.8%
same,residual activity,NEK2 (human),88.6%
same,residual activity,GSK3A (human),99.8%
same,residual activity,CDK6 CCND3 (human),99.2%
same,residual activity,ACVR1 (human),96.9%
same,residual activity,EPHA3 (human),105%
same,residual activity,SGK2 (human),99.5%
same,residual activity,PRKD2 (human),95.7%
same,residual activity,TGFBR2 (human),130%
same,residual activity,NEK1 (human),90%
same,residual activity,CSNK1G2 (human),99.3%
same,residual activity,HIPK4 (human),98.2%
same,residual activity,EGFR (human),98.4%
same,residual activity,TLK2 (human),117%
same,residual activity,ITK (human),87.5%
same,residual activity,DAPK2 (human),133%
same,residual activity,MYO3B (human),112%
same,residual activity,PRKG2 (human),114%
same,residual activity,STK38 (human),102%
same,residual activity,EPHA5 (human),113%
same,residual activity,TAOK1 (human),83.1%
same,residual activity,BRSK1 (human),96.9%
same,residual activity,ERBB4 (human),110%
same,residual activity,CDK3 CCNE1 (human),102%
same,residual activity,TAOK3 (human),95.3%
same,residual activity,DCLK2 (human),100%
same,residual activity,CAMK2D (human),109%
same,residual activity,NLK (human),105%
same,residual activity,PASK (human),103%
same,residual activity,PBK (human),106%
same,residual activity,MAP4K4 (human),93.7%
same,residual activity,SRPK1 (human),103%
same,residual activity,CAMK2G (human),104%
same,residual activity,KDR (human),88.3%
same,residual activity,RPS6KA1 KD1 KD2 (human),96.6%
same,residual activity,MAPK12 (human),100%
same,residual activity,ABL2 (human),106%
same,residual activity,MAP3K11 (human),102%
